# Data from publication PMC10424179, “Disrupting Kaposi’s Sarcoma-Associated Herpesvirus (KSHV) Latent Replication with a Small Molecule Inhibitor” (Journal of Medicinal Chemistry, 2023).
# Where two headings read alike, the source gives them in different places.
# Tests used:
# [1] = tested on: LANA-mediated replication of TR-containing plasmid pGTR4:73 in HEK293 cells; assay: Cell-based replication assay (Southern blot); details: Homo sapiens
# Description: Figure 3 (A) Illustration of the replication assay. […] (C) Bar graph of the intensity of the pGTR4:73 band after digestion with MfeI and DpnI on the Southern blot shown in panel B at different concentrations for compound 20. Values are means of two replicates.
# For the replication assay (Figure 3A), plasmids containing four copies of the terminal repeat of the viral genome and a LANA expression cassette are transfected into HEK293 cells. […] The cells that can express LANA will now amplify the plasmids with the help of LANA and maintain them over several days of cell growth. Where LANA is not expressed, only the transfected plasmids remain and are slowly thinned out by cell growth. After transfection, cells are treated with the compounds or DMSO and allowed to grow for three days. Then, the plasmid DNA is isolated from the cell. The DNA is digested in two separate batches. First, to linearize them (MfeI) and second, with an enzyme (DpnI) that only digests DNA that has a specific methylation pattern derived from the bacteria, in which these plasmids had been amplified. […] One batch contains both enzymes, and only the replicated linearized DNA remains there. The second batch (control) contains only the linearizing enzyme. […] The DNA is separated on a gel by electrophoresis and transferred to a membrane for immobilization (Southern blot). The DNA can then be visualized on this membrane using an enzyme-labeled probe, since the enzyme can generate chemiluminescence with a specific substrate. This assay is designed to specifically probe the LANA-mediated replication of plasmid DNA indicating on-target cellular activity. We performed the assay in a concentration range between 15.625 and 62.5 μM. For compound 20, we observed the strongest inhibitory effect (Figure 3B,C).
# This assay is based on protocols described previously and was modified as described in the following. 4 8 x 10^5 HEK 293 cells were plated per well in a 6-well plate. […]
# Caco-2 cell permeability = format: in vitro ADME; details: human, pH 7.4, Caco-2 monolayer, apical to basolateral
# Procedure: The next step was an in vitro ADMET profiling of the best seven compounds so far: 9, 11, 14, 19, 20, 21, and 27. The compounds were tested for their kinetic solubility (1% DMSO in PBS, pH 7.4), lipophilicity (chromatographic Log D7.4 value), cellular permeability (using Caco-2 cells), and metabolic stability (using mouse and human liver S9 fractions) (see Table 3).
# MTT Assay: Viability of HEK293 cells ~48 hours after treatment […]
# Fig S4: MTT assay for compounds 11, 14, 19, 20 and 21 using HEK293 cells. Values are means of […]
# Permeability of the compounds was assessed using Caco2 monolayers grown on Transwell® (3460 Costar, Corning). In brief, cells were seeded 60.000 cells/well in 12-well Transwell plates in DMEM medium supplemented with 10% FCS and 1% NEAA. Cells were grown for 7 to 9 days with medium replacement every other day until they reached a tight monolayer. Tightness was defined as transepithelial resistance (TEER) values >300 Ω/cm² (measured using an EVOM Volt-Ohmmeter, World Precision Instruments). At the day of permeability as say, the compound stock solutions in DMSO were diluted to 10µM in Krebs -Ringer-buffer (KRB, pH 7.4). Cells treated with KRB only served as control. Monolayer was washed two times with prewarmed KRB and incubated with 500 µl sample on the apical compartment. Samples from the basolateral side were drawn at t = 0, 15, 30, 60, 120, 180 and 300 min and replaced with fresh buffer. The plates were incubated for 5 h in a cell culture incubator with lateral shaking (200 rpm). TEER values were measured again at the end of the permeability test. Compound concentration was determined with HPLC-ESI-MS/MS in SRM mode and calculated for the cumulative transport. Values are means of three replicates.
structure (smiles),measurement,setting,value
COc1ccc(-c2cc(C)c(-n3cc(-c4ccc(C(=O)O)cc4)nn3)cn2)c(Cl)c1 [Compound 20],inhibition at 62.5 µM,"[1]; 72 h, HEK293 cells, 62.5 μM, three days of treatment",67%
same,IC50,"[1]; 72 h, HEK293 cells, three days of treatment, estimated from Southern blot, read-out: IC50 value (southern blot)",33.2 ± 3.6 µM
same,IC50,"[1]; Fig S5B, HEK293 replication assay, read-out: x0 of logistic fit, sigmoidal plot of southern blot (converted)",33.2 µM
same,"Papp A→B at 5 h, 10 µM",Caco-2 cell permeability,10.3 ± 2.3 ×10⁻⁶ cm/s
